Assay results from patent US20150353495A1 (PORTOLA PHARMACEUTICALS, INC., priority 2010, published 2015).

Tests used:
[1] = target: T1, JAK1 (Homo sapiens, UniProt P23458); test: Z'-LYTE kinase assay JAK1; format: biochemical
T1 construct: 5 μl of catalytic domain recombinant Kinase enzyme+Tyr peptide substrate (Invitrogen, CA); purchased Invitrogen
In short: (§1)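 In duplicate wells, each test molecule (1% final DMSO) is incubated with recombinant kinase catalytic domain, Tyr6 peptide substrate and ATP for one hour at room temperature; a site-specific protease is then added for another hour before fluorescence reading.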

[2] = target: T2, JAK3 (Homo sapiens, UniProt P52333); test: Z'-LYTE kinase assay JAK3; format: biochemical
T2 construct: 5 μl of catalytic domain recombinant Kinase enzyme+Tyr peptide substrate (Invitrogen, CA); purchased Invitrogen
In short: as §1

[3] = system: JAK1/3 signaling to STAT5 in primary T cells; test: IL2 stimulation of JAK1/3 signaling to STAT5 in primary T cells (pSTAT5 Y694, FACS); format: cell-based; details: T-cell; for inhibition at 0.2 µM: 0.2 uM compound, read-out: IL-2/STAT5 Percent Inhibition at 0.2 uM; for inhibition at 1 µM: 1.0 μM compound, read-out: IL-2/STAT5 Percent Inhibition at 1.0 μM
Description: IL2 Stimulation of JAK1/3 Signaling to STAT5 in Primary T Cells:
The effect of JAK inhibitors on cytokine signaling pathways utilizing JAK3 was determined using an IL2 stimulation assay. IL2 engages a receptor complex that contains the IL2 receptor alpha and beta subunits, and the common gamma chain, to initiate activation of JAK1 and JAK3 leading to phosphorylation of STAT5 at tyrosine position 694. Lymphocytes are isolated from heparinized whole blood over a ficoll gradient, then resuspended in tissue culture media containing 10% fetal calf serum at 10×10̂6 cells/ml. 100 μl aliquots are pre-treated for 1 hour with various concentrations of compound, and then stimulated for 12 minutes with 100 U/ml IL2. The signaling reaction is terminated by fixing in 2% paraformaldehyde for 10 minutes at room temperature. Fixed cells are then washed and permeablized by suspension in 50% methanol (in PBS) at −80° C. Following overnight incubation at 4° C., cells are washed and resuspended in PBS containing 0.5% bovine serum albumin containing CD3-APC and pSTAT5 Y694-PE conjugated antibodies. After 1 hour incubation, cells are washed and the extent of STAT5 phosphorlyation in T cells is measured by FACS analysis.

[4] = target: T3, JAK2 (Homo sapiens, UniProt O60674); test: Z'-LYTE kinase assay JAK2; format: biochemical
T3 construct: 5 μl of catalytic domain recombinant Kinase enzyme+Tyr peptide substrate (Invitrogen, CA); purchased Invitrogen
In short: as §1

[5] = target: T4, TYK2 (Homo sapiens, UniProt P29597); test: Z'-LYTE kinase assay TYK2; format: biochemical
T4 construct: 5 μl of catalytic domain recombinant Kinase enzyme+Tyr peptide substrate (Invitrogen, CA); purchased Invitrogen
T4 sequence (P29597 897-1176 limits assumed): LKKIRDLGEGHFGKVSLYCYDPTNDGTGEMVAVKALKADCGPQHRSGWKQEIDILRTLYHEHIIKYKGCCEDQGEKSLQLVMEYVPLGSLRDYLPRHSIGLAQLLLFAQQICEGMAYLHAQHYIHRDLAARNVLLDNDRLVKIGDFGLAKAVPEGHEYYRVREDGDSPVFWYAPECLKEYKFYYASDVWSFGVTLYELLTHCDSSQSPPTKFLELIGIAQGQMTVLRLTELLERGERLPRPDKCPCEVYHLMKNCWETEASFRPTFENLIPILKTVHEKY
In short: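 IC50 derived by 4-parameter logistic fit of percent substrate phosphorylation relative to uninhibited wells. Tyr6 peptide phosphorylated by recombinant TYK2 catalytic domain for 1 h at room temperature (1% DMSO), cleaved by development protease 1 h, FRET emission ratio 445/520 nm.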

[6] = system: JAK1/3 signaling to STAT6 in Ramos B cells; test: IL4 stimulation of JAK1/3 signaling to STAT6 in Ramos B cells (pSTAT6 Y641, FACS); format: cell-based; details: Homo sapiens; for inhibition at 0.2 µM: 0.2 uM compound, read-out: IL-4/STAT6 in Ramos Percent Inhibition at 0.2 uM; for inhibition at 1 µM: 1.0 uM compound, read-out: IL-4/STAT6 in Ramos Percent Inhibition at 1.0 uM
In short: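 Phospho-STAT6 Y641 was measured by FACS using a PE-labelled antibody after fixation (2% paraformaldehyde) and methanol permeabilization. Before this, Ramos cells were exposed to compound for 1 h, then to 15 ng IL4 for 15 min.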

T2 sequence (P52333 822-1111 limits assumed): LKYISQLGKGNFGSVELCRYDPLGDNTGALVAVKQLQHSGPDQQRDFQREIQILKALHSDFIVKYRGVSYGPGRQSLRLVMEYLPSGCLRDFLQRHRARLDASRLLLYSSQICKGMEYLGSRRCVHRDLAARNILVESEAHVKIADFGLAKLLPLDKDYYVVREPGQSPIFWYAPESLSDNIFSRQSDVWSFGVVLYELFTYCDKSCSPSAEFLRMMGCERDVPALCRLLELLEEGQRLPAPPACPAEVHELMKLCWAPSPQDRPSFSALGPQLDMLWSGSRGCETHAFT
T3 sequence (O60674 849-1124 limits assumed): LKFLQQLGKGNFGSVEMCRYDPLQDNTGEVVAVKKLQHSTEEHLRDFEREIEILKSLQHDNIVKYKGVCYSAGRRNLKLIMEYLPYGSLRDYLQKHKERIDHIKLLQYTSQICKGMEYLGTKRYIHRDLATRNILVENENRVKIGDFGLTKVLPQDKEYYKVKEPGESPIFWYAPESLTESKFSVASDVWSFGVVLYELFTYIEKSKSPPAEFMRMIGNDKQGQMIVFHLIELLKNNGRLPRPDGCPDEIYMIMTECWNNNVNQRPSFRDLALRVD
T1 sequence (P23458 875-1153 limits assumed): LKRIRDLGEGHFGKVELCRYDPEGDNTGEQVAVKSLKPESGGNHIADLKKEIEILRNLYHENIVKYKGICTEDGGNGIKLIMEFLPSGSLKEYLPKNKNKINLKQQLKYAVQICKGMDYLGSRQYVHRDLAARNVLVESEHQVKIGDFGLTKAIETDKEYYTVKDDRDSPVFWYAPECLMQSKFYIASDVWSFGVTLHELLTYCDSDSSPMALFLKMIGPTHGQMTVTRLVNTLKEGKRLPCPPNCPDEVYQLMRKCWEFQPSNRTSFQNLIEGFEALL

SMILES	IC50 [1] [nM]	IC50 [2] [nM]	inhibition at 0.2 µM [3] [%]	inhibition at 1 µM [3] [%]	IC50 [4] [nM]	IC50 [5] [nM]	inhibition at 0.2 µM [6] [%]	inhibition at 1 µM [6] [%]
NC(=O)c1cnc(Nc2ccc(OCCN3CCOCC3)cc2)cc1NCc1ccccc1 [Example 429, 4-(benzylamino)-6-(4-(2-morpholinoethoxyl)phenylamino)nicotinamide]	100 to 1000	1 to 10	60	77	100 to 1000	> 1000	19	33
NC(=O)c1cnc(Nc2ccc(C(=O)N3CCCC3)cc2)cc1NCc1ccccc1 [Example 39, 4-(benzylamino)-6-(4-(pyrrolidine-1-carbonyl)phenylamino)nicotinamide]	100 to 1000	1 to 10	37	65	100 to 1000	100 to 1000	47	52
NC(=O)c1cnc(Nc2ccc(OCCN3CCCC3)cc2)cc1NCc1ccccc1 [Example 428, 4-(benzylamino)-6-(4-(2-(pyrrolidin-1-yl)ethoxy)phenylamino)nicotinamide]	> 1000	1 to 10	56	84	100 to 1000	> 1000	33	46
CN1CCC(c2ccc(Nc3cc(NCc4ccccc4F)c(C(N)=O)cn3)cc2)CC1 [Example 107, 4-(2-fluorobenzylamino)-6-(4-(1-methylpiperidin-4-yl)phenylamino)nicotinamide]	100 to 1000	1 to 10	58	82	100 to 1000	100 to 1000	43	73
NC(=O)c1cnc(Nc2ccc(N3CCOCC3)cc2)cc1NCc1ccccc1 [Example 250, 4-(benzylamino)-6-(4-morpholinophenylamino)nicotinamide]	> 1000	1 to 10	18	50	100 to 1000	> 1000	11	26
NC(=O)c1cnc(Nc2ccc(C(=O)N3CCC3)cc2)cc1NCc1c(F)cccc1F [Example 105, 6-(4-(azetidine-1-carbonyl)phenylamino)-4-(2,6-difluorobenzylamino)nicotinamide]	10 to 100	1 to 10	72	99	10 to 100	10 to 100	53	88
CC(=O)N1CCN(c2ccc(Nc3cc(N[C@H](C)c4ccccc4)c(C(N)=O)cn3)cc2)CC1 [Example 7, (R)-6-(4-(4-acetylpiperazin-1-yl)phenylamino)-4-(1-phenylethylamino)nicotinamide]	100 to 1000	1 to 10	29	74	100 to 1000	> 1000	10	40
NC(=O)c1cnc(Nc2ccc(N3CCOCC3)cc2)cc1NCc1cccc(F)c1 [Example 67, 4-(3-fluorobenzylamino)-6-(4-morpholinophenylamino)nicotinamide]	100 to 1000	1 to 10	61	89	10 to 100	100 to 1000	48	69
CCC(=O)N1CCC(c2ccc(Nc3cc(NCc4ccccc4F)c(C(N)=O)cn3)cc2)CC1 [Example 79]	100 to 1000	10 to 100	53	73	100 to 1000	100 to 1000	20	43
COc1ccc(Nc2cc(NCc3cccc4ccsc34)c(C(N)=O)cn2)cc1 [Example 284, 4-(benzo[b]thiophen-7-ylmethylamino)-6-(4-methoxyphenylamino)nicotinamide]	> 1000	10 to 100	39	75	100 to 1000	> 1000	–	–
Cc1cc(Nc2cc(NCc3cccc4ccsc34)c(C(N)=O)cn2)ccc1C(=O)N1CCC1 [Example 457, 6-(4-(azetidine-1-carbonyl)-3-methylphenylamino)-4-(benzo[b]thiophen-7-ylmethylamino)nicotinamide]	100 to 1000	< 1	56	100	10 to 100	100 to 1000	–	–
NC(=O)c1cnc(Nc2ccc(C3CCNCC3)cc2)cc1NCc1cccc(F)c1F [Example 209, 4-(2,3-difluorobenzylamino)-6-(4-(piperidin-4-yl)phenylamino)nicotinamide]	100 to 1000	1 to 10	70	99	10 to 100	100 to 1000	–	–
NC(=O)c1cnc(Nc2ccc(OC(F)F)cc2)cc1NCc1cccc2[nH]ccc12 [Example 321, 4-((1H-indol-4-yl)methylamino)-6-(4-(difluoromethoxy)phenylamino)nicotinamide]	100 to 1000	10 to 100	42	94	100 to 1000	> 1000	–	–
Cc1cc(Nc2cc(NCc3cccc4cc[nH]c34)c(C(N)=O)cn2)ccc1C(=O)N1CCCC1 [Example 464, 4-((1H-indol-7-yl)methylamino)-6-(3-methyl-4-(pyrrolidine-1-carbonyl)phenylamino)nicotinamide]	> 1000	1 to 10	22	55	10 to 100	> 1000	–	–
Cc1cc(Nc2cc(NCc3cccc4ccsc34)c(C(N)=O)cn2)ccc1C(=O)N(C)C [Example 285, 4-(benzo[b]thiophen-7-ylmethylamino)-6-(4-(dimethylcarbamoyl)-3-methylphenylamino)nicotinamide]	10 to 100	< 1	58	96	10 to 100	100 to 1000	–	–
CCC(=O)N1CCN(c2ccc(Nc3cc(NCc4cccc(F)c4F)c(C(N)=O)cn3)cc2)CC1 [Example 435, 4-(2,3-difluorobenzylamino)-6-(4-(4-propionylpiperazin-1-yl)phenylamino)nicotinamide]	100 to 1000	1 to 10	63	102	10 to 100	100 to 1000	–	–
CS(=O)(=O)c1ccc(Nc2cc(NCc3cccc4[nH]ccc34)c(C(N)=O)cn2)cc1 [Example 320, 4-((1H-indol-4-yl)methylamino)-6-(4-(methylsulfonyl)phenylamino)nicotinamide]	10 to 100	1 to 10	90	108	10 to 100	10 to 100	–	–
Cc1cc(Nc2cc(NCc3cccc4cc[nH]c34)c(C(N)=O)cn2)ccc1C(=O)N(C)C [Example 283, 4-((1H-indol-7-yl)methylamino)-6-(4-(dimethylcarbamoyl)-3-methylphenylamino)nicotinamide]	> 1000	1 to 10	42	65	10 to 100	> 1000	–	–
CCC(=O)N1CCC(c2ccc(Nc3cc(NCc4cccc5[nH]ccc45)c(C(N)=O)cn3)cc2)CC1 [Example 200, 4-((1H-indol-4-yl)methylamino)-6-(4-(1-propionylpiperidin-4-yl)phenylamino)nicotinamide]	10 to 100	1 to 10	77	103	10 to 100	10 to 100	–	–
